The results in this text go back to US11439707B2, “Hypocrellin derivative substituted both in a peri-position and in 2-position by amino, preparation method, and application thereof” (priority 2017, dated 2022).

Data set [1] in a line: absorption spectrum (maximum absorption wavelength, molar extinction coefficient). In kind it is physicochemical.
Data set [2] is described as follows: singlet oxygen efficiency test, reference rose bengal. In kind it is physicochemical.

Each structure is given as a SMILES string.

With `COc1c2c3c4c(c(NC(C(=O)O)C(C)C)c(=O)c5c(NC(C(=O)O)C(C)C)cc(OC)c(c6c(OC)cc(O)c(c1=O)c63)c54)C=C(C)C2C(C)=O` (stereo not drawn) [HB-22c], in data set [1], the maximum absorption wavelength is 620 nm and the molar extinction coefficient was 21,500 M^−1cm^−1. The same compound yielded a singlet oxygen yield in data set [2] of 22%.

On to `COc1c2c3c4c(c(NC(C(=O)O)C(C)C)c(=O)c5c(O)cc(OC)c(c6c(OC)cc(NC(C(=O)O)C(C)C)c(c1=O)c63)c54)C=C(C)C2C(C)=O` (stereo not drawn) [HB-22d], for which, in data set [1], the maximum absorption wavelength stood at 625 nm and the molar extinction coefficient is 21,500 M^−1cm^−1. Moreover, in data set [2], the singlet oxygen yield was 22%.

For `COc1c(O)c2c(=O)cc(OC)c3c4c(OC)cc(=O)c5c(NC(CO)C(=O)O)c(NC(CO)C(=O)O)c6c(c(c1C(C(C)=O)C(C)=C6)c23)c54` (stereo not drawn) [HB-23a], in data set [1], the maximum absorption wavelength came to 625 nm and the molar extinction coefficient was 21,500 M^−1cm^−1. The same compound had a singlet oxygen yield in data set [2] of 20%.

Regarding `COc1c2c3c4c(c(NC(CO)C(=O)O)c(=O)c5c(NC(CO)C(=O)O)cc(OC)c(c6c(OC)cc(O)c(c1=O)c63)c54)C=C(C)C2C(C)=O` (stereo not drawn) [HB-23c], in data set [1], the maximum absorption wavelength was 622 nm and the molar extinction coefficient is 22,000 M^−1cm^−1. For the same compound, in data set [2], the singlet oxygen yield came out at 22%.

For the compound `COc1c2c3c4c(c(NC(CO)C(=O)O)c(=O)c5c(O)cc(OC)c(c6c(OC)cc(NC(CO)C(=O)O)c(c1=O)c63)c54)C=C(C)C2C(C)=O` (stereo not drawn) [HB-23d], in data set [1], the maximum absorption wavelength is listed as 621 nm and the molar extinction coefficient is reported as 21,500 M^−1cm^−1. The singlet oxygen yield in data set [2] is on record as 18%.

As to `COC(=O)C(CO)Nc1c(NC(CO)C(=O)OC)c2c(=O)cc(OC)c3c4c(OC)cc(=O)c5c(O)c(OC)c6c(c(c1C=C(C)C6C(C)=O)c23)c54` (stereo not drawn) [HB-24a], in data set [1], the maximum absorption wavelength is 625 nm and the molar extinction coefficient is given as 20,500 M^−1cm^−1. Moreover, in data set [2], the singlet oxygen yield came to 20%.

For the compound `COC(=O)C(CO)Nc1c(O)c2c(=O)cc(OC)c3c4c(OC)cc(=O)c5c(NC(CO)C(=O)OC)c(OC)c6c(c(c1C=C(C)C6C(C)=O)c23)c54` (stereo not drawn) [HB-24b], in data set [1], the maximum absorption wavelength turned out to be 621 nm and the molar extinction coefficient was 21,500 M^−1cm^−1. Moreover, the singlet oxygen yield in data set [2] is on record as 20%.

For `COC(=O)C(CO)Nc1c2c3c4c(c(OC)c(=O)c5c(O)cc(OC)c(c6c(OC)cc(NC(CO)C(=O)OC)c(c1=O)c63)c54)C(C(C)=O)C(C)=C2` (stereo not drawn) [HB-24c], in data set [1], the maximum absorption wavelength was determined as 622 nm and the molar extinction coefficient is 21,500 M^−1cm^−1. This compound also gave a singlet oxygen yield in data set [2] of 22%.

On to `COC(=O)C(CO)Nc1c2c3c4c(c(OC)c(=O)c5c(NC(CO)C(=O)OC)cc(OC)c(c6c(OC)cc(O)c(c1=O)c63)c54)C(C(C)=O)C(C)=C2` (stereo not drawn) [HB-24d], for which, in data set [1], the maximum absorption wavelength worked out at 621 nm and the molar extinction coefficient is reported as 20,500 M^−1cm^−1. This compound also displayed a singlet oxygen yield in data set [2] of 20%.

For `COc1c(O)c2c(=O)cc(OC)c3c4c(OC)cc(=O)c5c(NC(CS)C(=O)O)c(NC(CS)C(=O)O)c6c(c(c1C(C(C)=O)C(C)=C6)c23)c54` (stereo not drawn) [HB-25a], in data set [1], the maximum absorption wavelength is listed as 625 nm and the molar extinction coefficient is on record as 21,500 M^−1cm^−1. Also, the singlet oxygen yield in data set [2] was 18%.

`COc1c(NC(CS)C(=O)O)c2c(=O)cc(OC)c3c4c(OC)cc(=O)c5c(O)c(NC(CS)C(=O)O)c6c(c(c1C(C(C)=O)C(C)=C6)c23)c54` (stereo not drawn) [HB-25b]: in data set [1], the maximum absorption wavelength was determined as 629 nm and the molar extinction coefficient was 20,500 M^−1cm^−1. The same compound registered a singlet oxygen yield in data set [2] of 20%.

As for `COc1c2c3c4c(c(NC(CS)C(=O)O)c(=O)c5c(NC(CS)C(=O)O)cc(OC)c(c6c(OC)cc(O)c(c1=O)c63)c54)C=C(C)C2C(C)=O` (stereo not drawn) [HB-25c], in data set [1], the maximum absorption wavelength is 632 nm and the molar extinction coefficient was 21,500 M^−1cm^−1. Further, the singlet oxygen yield in data set [2] stood at 20%.

Regarding `COc1c2c3c4c(c(NC(CS)C(=O)O)c(=O)c5c(O)cc(OC)c(c6c(OC)cc(NC(CS)C(=O)O)c(c1=O)c63)c54)C=C(C)C2C(C)=O` (stereo not drawn) [HB-25d], in data set [1], the maximum absorption wavelength is 630 nm and the molar extinction coefficient is on record as 20,500 M^−1cm^−1. The compound further returned a singlet oxygen yield in data set [2] of 18%.

For `COc1c(O)c2c(=O)cc(OC)c3c4c(OC)cc(=O)c5c(NC(CC(N)=O)C(=O)O)c(NC(CC(N)=O)C(=O)O)c6c(c(c1C(C(C)=O)C(C)=C6)c23)c54` (stereo not drawn) [HB-26a], in data set [1], the maximum absorption wavelength was 614 nm and the molar extinction coefficient was 20,500 M^−1cm^−1. Also, in data set [2], the singlet oxygen yield is listed as 20%.

Turning to `COc1c2c3c4c(c(NC(CC(N)=O)C(=O)O)c(=O)c5c(NC(CC(N)=O)C(=O)O)cc(OC)c(c6c(OC)cc(O)c(c1=O)c63)c54)C=C(C)C2C(C)=O` (stereo not drawn) [HB-26c], in data set [1], the maximum absorption wavelength is 614 nm and the molar extinction coefficient is recorded as 21,500 M^−1cm^−1. The compound further registered a singlet oxygen yield in data set [2] of 21%.

For the compound `COc1c2c3c4c(c(NC(CC(N)=O)C(=O)O)c(=O)c5c(O)cc(OC)c(c6c(OC)cc(NC(CC(N)=O)C(=O)O)c(c1=O)c63)c54)C=C(C)C2C(C)=O` (stereo not drawn) [HB-26d], in data set [1], the maximum absorption wavelength was 622 nm and the molar extinction coefficient is 20,500 M^−1cm^−1. The compound also showed a singlet oxygen yield in data set [2] of 16%.

Take `COc1c(O)c2c(=O)cc(OC)c3c4c(OC)cc(=O)c5c(NC(CC(=O)O)C(=O)O)c(NC(CC(=O)O)C(=O)O)c6c(c(c1C(C(C)=O)C(C)=C6)c23)c54` (stereo not drawn) [HB-27a]: in data set [1], the maximum absorption wavelength worked out at 621 nm and the molar extinction coefficient was 20,500 M^−1cm^−1. The compound further gave a singlet oxygen yield in data set [2] of 18%.

As for `COc1c2c3c4c(c(NC(CC(=O)O)C(=O)O)c(=O)c5c(NC(CC(=O)O)C(=O)O)cc(OC)c(c6c(OC)cc(O)c(c1=O)c63)c54)C=C(C)C2C(C)=O` (stereo not drawn) [HB-27c], in data set [1], the maximum absorption wavelength was 625 nm and the molar extinction coefficient is recorded as 21,500 M^−1cm^−1. Also, the singlet oxygen yield in data set [2] is given as 21%.

Consider `COc1c2c3c4c(c(NC(CC(=O)O)C(=O)O)c(=O)c5c(O)cc(OC)c(c6c(OC)cc(NC(CC(=O)O)C(=O)O)c(c1=O)c63)c54)C=C(C)C2C(C)=O` (stereo not drawn) [HB-27d], for which, in data set [1], the maximum absorption wavelength stood at 620 nm and the molar extinction coefficient is recorded as 21,500 M^−1cm^−1. This compound registered a singlet oxygen yield in data set [2] of 18%.

As for `COc1c(O)c2c(=O)cc(OC)c3c4c(OC)cc(=O)c5c(NC(CCC(=O)O)C(=O)O)c(NC(CCC(=O)O)C(=O)O)c6c(c(c1C(C(C)=O)C(C)=C6)c23)c54` (stereo not drawn) [HB-28a], in data set [1], the maximum absorption wavelength is listed as 621 nm and the molar extinction coefficient is 20,500 M^−1cm^−1. In data set [2], this compound yielded a singlet oxygen yield of 18%.

For the compound `COc1c(NC(CCC(=O)O)C(=O)O)c2c(=O)cc(OC)c3c4c(OC)cc(=O)c5c(O)c(NC(CCC(=O)O)C(=O)O)c6c(c(c1C(C(C)=O)C(C)=C6)c23)c54` (stereo not drawn) [HB-28b], in data set [1], the maximum absorption wavelength stood at 620 nm and the molar extinction coefficient was 21,000 M^−1cm^−1. The singlet oxygen yield in data set [2] came out at 19%.

As for `COc1c2c3c4c(c(NC(CCC(=O)O)C(=O)O)c(=O)c5c(NC(CCC(=O)O)C(=O)O)cc(OC)c(c6c(OC)cc(O)c(c1=O)c63)c54)C=C(C)C2C(C)=O` (stereo not drawn) [HB-28c], in data set [1], the maximum absorption wavelength was 625 nm and the molar extinction coefficient was 21,500 M^−1cm^−1. Besides, the singlet oxygen yield in data set [2] is 22%.
